Reference: PMC10910545, “The crystal structure of mycothiol disulfide reductase (Mtr) provides mechanistic insight into the specific low-molecular-weight thiol reductase activity of Actinobacteria” (Acta Crystallographica. Section D, Structural Biology, 2024)

Legend:
[1] = target: T1, Mtr Ms (mycothiol disulfide reductase) (Mycolicibacterium smegmatis, UniProt A0QVL0); assay: UV-Vis A465/A280 ratio and yellow crystals; type: binding; conditions: copurified cofactor; FAD not modelled in the 4.7 A structure
T1 construct: gene MSMEG_2611; full-length, 461 residues, pET-22b(+) NdeI/XhoI, E. coli BL21(DE3); homodimer about 100 kDa

[2] = target: T2, Mtr Re (mycothiol disulfide reductase) (Rhodococcus erythropolis, UniProt C0ZY75); assay: X-ray crystal structure, […] A; type: binding; conditions: copurified cofactor, one FAD per monomer; redox-active Cys39-Cys44 on si face
T2 construct: full-length, 458 residues, pET-22b(+) NdeI/XhoI, E. coli BL21(DE3); homodimer about 100 kDa
T2 sequence (C0ZY75 entry or part of it): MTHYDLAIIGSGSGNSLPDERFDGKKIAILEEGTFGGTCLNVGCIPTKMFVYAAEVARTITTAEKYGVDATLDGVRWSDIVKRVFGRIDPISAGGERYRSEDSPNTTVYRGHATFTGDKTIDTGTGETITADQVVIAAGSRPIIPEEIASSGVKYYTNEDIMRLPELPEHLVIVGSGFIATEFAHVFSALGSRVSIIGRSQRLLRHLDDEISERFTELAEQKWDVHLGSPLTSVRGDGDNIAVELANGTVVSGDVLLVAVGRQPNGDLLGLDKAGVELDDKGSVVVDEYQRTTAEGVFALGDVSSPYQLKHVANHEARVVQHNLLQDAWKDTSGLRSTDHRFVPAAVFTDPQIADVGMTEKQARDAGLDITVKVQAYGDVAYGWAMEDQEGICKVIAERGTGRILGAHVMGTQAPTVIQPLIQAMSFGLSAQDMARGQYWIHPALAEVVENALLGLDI

T1 sequence (A0QVL0 1-461): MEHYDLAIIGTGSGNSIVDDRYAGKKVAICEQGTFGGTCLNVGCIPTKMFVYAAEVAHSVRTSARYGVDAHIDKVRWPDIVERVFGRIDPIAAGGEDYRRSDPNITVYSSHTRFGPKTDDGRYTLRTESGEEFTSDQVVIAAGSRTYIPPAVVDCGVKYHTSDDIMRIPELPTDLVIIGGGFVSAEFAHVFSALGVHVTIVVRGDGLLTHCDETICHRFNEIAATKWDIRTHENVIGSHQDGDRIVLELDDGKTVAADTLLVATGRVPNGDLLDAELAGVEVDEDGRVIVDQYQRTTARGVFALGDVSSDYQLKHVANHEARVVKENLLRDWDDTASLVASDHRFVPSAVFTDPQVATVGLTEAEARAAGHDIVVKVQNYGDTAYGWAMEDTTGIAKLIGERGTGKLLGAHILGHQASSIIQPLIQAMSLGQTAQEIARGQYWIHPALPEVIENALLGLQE

Cc1cc2nc3c(=O)[nH]c(=O)nc-3n(C[C@H](O)[C@H](O)[C@H](O)COP(=O)(O)OP(=O)(O)OC[C@H]3O[C@@H](n4cnc5c(N)ncnc54)[C@H](O)[C@@H]3O)c2cc1C [FAD]
UV-Vis A465/A280 ratio and yellow crystals [1]: support the presence of FAD in both proteins | X-ray crystal structure, 2.9 A [2]: In Mtr Re , both monomers show strong density for the FAD cofactor
